Measured values: patent US10399971B2, “Compound for treating or preventing hyperuricemia or gout” (JIANGSU ATOM BIOSCIENCE AND PHARMACEUTICAL CO., LTD., priority 2015, dated 2019)

Key:
Type in all cases: cell-based
[1] = test system: human normal liver cell line WRL-68; assay: Cytotoxicity test on human normal liver cell line WRL-68 (Alamar Blue); conditions: WRL68, WRL-68 cells, 120 h incubation, cell viability, read-out: half inhibitory concentration (IC50) against WRL-68
Description: (§1) 2.1 The normal liver cell lines L-02 and WRL-68 were cultured with DMEM culture medium (containing 10% of fetal bovine serum, 100 U/mL of penicillin and 0.1 mg/mL of streptomycin) in an incubator under 5% CO2 at 37° C. until the cell density was about 90%, respectively.
(§2) 2.3 Tested compounds and benzbromarone at different concentration gradients were prepared by using the DMEM culture medium and added into wells at 100 μL/well as compounds wells. The DMEM culture medium was added into wells at 100 μL/well without tested compound as negative control wells.
(§3) This 10× Alamar Blue solution was diluted into 1× Alamar Blue solution with phenol red free DMEM culture medium before use.
(§4) 2.5 The cells were washed with PBS (0.1 M, pH=7.4) twice. The Alamar Blue solution was added into wells at 100 μL/well. 100 μL of Alamar Blue solution was added into wells without cells to serve as blank control wells. The 96-well plate was placed in an incubator under 5% CO2 at 37° C. for 3 h. Each concentration of compound was repeated three times during the test.
(§5) The fluorescence value of the cells containing compound is the F(test compound); the fluorescence value of the cells without compound as blank control is the F(blank control); the fluorescent value of the cells from negative control group is F(negative control). The average value and standard deviation of cell viability of three repeated concentrations was calculated by the following formula: […]
(§6) 2.7 The half inhibitory concentration (IC50) of the compound for the cells L-02 and WRL-68 was obtained from the cell viability by Prism Graph software.

[2] = molecular target: T1, hURAT1 (Homo sapiens, UniProt Q96S37); assay: Inhibition assay of uric acid transport in HEK293-hURAT1 transfection cell line; conditions: 500 nM, HEK293-hURAT1 transfection cell line, 14C-uric acid, average of three tests; for inhibition at 0.5 µM: read-out: Inhibitory rates of uric acid transport, ±SD (%)
T1 sequence (Q96S37 1-553): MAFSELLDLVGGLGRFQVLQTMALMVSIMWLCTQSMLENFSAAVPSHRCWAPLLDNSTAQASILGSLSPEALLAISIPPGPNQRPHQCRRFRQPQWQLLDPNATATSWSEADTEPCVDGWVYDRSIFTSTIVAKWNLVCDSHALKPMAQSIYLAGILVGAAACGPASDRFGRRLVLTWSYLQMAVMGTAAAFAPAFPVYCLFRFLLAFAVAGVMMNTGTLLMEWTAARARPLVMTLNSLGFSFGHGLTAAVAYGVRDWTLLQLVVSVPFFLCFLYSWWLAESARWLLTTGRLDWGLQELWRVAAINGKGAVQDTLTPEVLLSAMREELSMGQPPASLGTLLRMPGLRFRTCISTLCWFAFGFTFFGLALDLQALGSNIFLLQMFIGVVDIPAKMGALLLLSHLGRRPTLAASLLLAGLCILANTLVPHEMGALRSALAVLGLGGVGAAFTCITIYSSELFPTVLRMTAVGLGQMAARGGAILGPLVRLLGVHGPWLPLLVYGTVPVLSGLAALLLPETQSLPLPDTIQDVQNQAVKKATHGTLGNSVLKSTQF
Description: 2.1 Construction of a HEK293 stable cell line with high expression of hURAT1: The plasmid pCMV6-hURAT1 was transfected into HEK293 cells, then the stable strain was obtained by the G418 (final concentration 500 μg/mL) resistance screening, which is the high expression of hURAT1 transporter membrane protein.
2.2 To a coated 24-well plate was added 200 μL of 0.1 mg/mL poly-lysine per well and the plate was left overnight. Poly-lysine was removed from wells. The wells were cleaned thoroughly with aseptic water and dried for use.
2.3 To the above coated 24 well plate was added HEK293-hURAT1 stable cells (2×10^5 cells per well). The cells was cultured at 37° C. under 5% CO2 for 3 days.
The solution was fully mixed to give HBSS buffer (pH value: 7.4). The buffer was stored at −20° C.
2.5 The HBSS buffer was warmed to 37° C. in a water bath. Washed cells with HBSS twice, added 160 μL of HBSS and 20 μL test compound per well. The final concentration of tested compound per well is 500 nM. The blank control well contains only 180 μL of HBSS without tested compound. The plate was placed at room temperature for 30 min.
2.6 To each well was added 20 μL of 50 μM ^14C-Uric acid. The plate was placed at room temperature for 20 min.
2.7 The solution in each well was removed and the cells in each well were washed with pre-cooled HBSS buffer. To each well was added 0.2 M NaOH to dissolve the cells. The solution containing cell fragments was collected and the right amount of scintillation liquid was added.
The formula for calculating the inhibitory rate of uric acid transport for compounds was shown as below: […]

[3] = test system: human normal liver cell line L-02; assay: Cytotoxicity test on human normal liver cell line L-02 (Alamar Blue); conditions: L02, L-02 cells, 120 h incubation, cell viability, read-out: half inhibitory concentration (IC50) against L-02
Description: as §1, §2, §3, §4, §5, §6

Row | SMILES | IC50 [1] | inhibition at 0.5 µM [2] | IC50 [3] | Inhibitory rates of uric acid transport, ±SD (%) [2] | Inhibitory rates of uric acid transport, ±SD (%) ([2]; 0.5 µM)
1 | CCc1nc2ccccn2c1C(=O)c1cc(Cl)c(O)c(I)c1 [Compound 9, (3-chloro-4-hydroxy-5-iodophenyl)(2-ethylimidazo[1,2-a]-pyridin-3-yl)methanone] | > 100 µM | 60.6 ± 0.82% | > 100 µM |  | 
2 | [2H]c1ccc2nc(CC)c(C(=O)c3cc(Br)c(O)c(Br)c3)n2c1 [Compound 69, (6-deuterium-2-ethylimidazo[1,2-a]pyridine-3-yl)(3,5-dibromo-4-hydroxyphenyl)methanone] |  |  |  | 71.10 ± 2.50% | 
3 | CCc1nc2cc(C)c(Br)cn2c1C(=O)c1cc(Br)c(O)c(Br)c1 [Compound 56, (6-bromo-2-ethyl-7-methylimidazo[1,2-a]pyridin-3-yl)-(3,5-dibromo-4-hydroxyphenyl)methanone] | > 100 µM | 62.8 ± 9.34% | > 100 µM |  | 
4 | CCc1nc2ccccn2c1C(=O)c1cc(Cl)c(O)c(Br)c1 [Compound 45, (3-bromo-5-chloro-4-hydroxyphenyl)(2-ethylimidazo[1,2-a]-pyridin-3-yl)methanone] | > 100 µM | 62.9 ± 3.34% | > 100 µM |  | 
5 | CCc1nc2ccc(F)cn2c1C(=O)c1cc(Cl)c(O)c(I)c1 [Compound 19, (3-chloro-4-hydroxy-5-iodophenyl)(2-ethyl-6-fluoroimidazo[1,2-a]pyridine-3-yl)methanone] |  | 68.8 ± 2.83% |  |  | 
6 | CCc1nc2ccccn2c1C(=O)c1cc(I)c(O)c(I)c1 [Compound 5, (2-ethylimidazo[1,2-a]pyridine-3-yl)(4-hydroxy-3,5-diiodophenyl)methanone] | > 100 µM | 63 ± 3.33% | > 100 µM |  | 
7 | CCc1nc2ccccn2c1C(=O)c1cc(I)c(O)c(C#N)c1 [Compound 39, 5-(2-ethylimidazo[1,2-a]pyridine-3-carbonyl)-2-hydroxy-3-iodobenzonitrile] |  | 64.1 ± 2.25% |  |  | 
8 | CCc1nc2ccccn2c1C(=O)c1cc(Br)c(O)c(C(F)(F)F)c1 [Compound 29, (3-bromo-4-hydroxy-5-(trifluoromethyl)phenyl)-(2-ethylimidazo[1,2-a]pyridine-3-yl)methanone] |  | 64.35 ± 0.12% |  |  | 
9 | CCCc1nc2ccccn2c1C(=O)c1cc(Br)c(O)c(Br)c1 [Compound 41, (3,5-dibromo-4-hydroxyphenyl)(2-propylimidazo[1,2-a]-pyridine-3-yl)methanone] |  | 55.5 ± 1.02% |  |  | 
10 | CCc1nc2ccccn2c1C(=O)c1cc(Br)c(O)c(I)c1 [Compound 11, (3-bromo-4-hydroxy-5-iodophenyl)(2-ethylimidazo[1,2-a]-pyridine-3-yl)methanone] |  | 63.5 ± 0.95% |  |  | 
11 | CCc1nc2ccccn2c1C(=O)c1cc(C)c(O)c(I)c1 [Compound 12, (2-ethylimidazo[1,2-a]pyridine-3-yl)(4-hydroxy-3-iodo-5-methylphenyl)methanone] |  | 56.24 ± 0.12% |  |  | 
12 | CCc1nc2ccc(OC)cn2c1C(=O)c1cc(Br)c(O)c(Br)c1 [Compound 33, (3,5-dibromo-4-hydroxyphenyl)(2-ethyl-6-methoxyimidazo[1,2-a]pyridine-3-yl)methanone] | > 100 µM | 65.06 ± 0.39% | > 100 µM |  | 
13 | CCc1nc2ccc(O)cn2c1C(=O)c1cc(Br)c(O)c(Br)c1 [Compound 52, (3,5-dibromo-4-hydroxyphenyl)(2-ethyl-6-hydroxyimidazo-[1,2-a]pyridin-3-yl)methanone] | > 100 µM | 57.5 ± 3.61% | > 100 µM |  | 
14 | CCc1nc2ccc(F)cn2c1C(=O)c1cc(F)c(O)c(I)c1 [Compound 51, (2-ethyl-6-fluoroimidazo[1,2-a]pyridin-3-yl)(3-fluoro-4-hydroxy-5-iodophenyl)methanone] | > 100 µM | 61.3 ± 1.1% | > 100 µM |  | 
15 | CCc1nc2ccc(F)cn2c1C(=O)c1cc(Cl)c(O)c(Br)c1 [Compound 18, (3-bromo-5-chloro-4-hydroxyphenyl)(2-ethyl-6-fluoroimidazo[1,2-a]pyridine-3-yl)methanone] | > 100 µM | 65.4 ± 0.71% | > 100 µM |  | 
16 | CCc1nc2ccccn2c1C(=O)c1cc(Br)c(O)c(C#N)c1 [Compound 38, 3-bromo-5-(2-ethylimidazo[1,2-a]pyridine-3-carbonyl)-2-hydroxybenzonitrile] |  | 62.4 ± 0.72% |  |  | 
17 | CCc1nc2ccccn2c1C(=O)c1cc(Br)c(O)c(Br)c1 [Compound 4, (3,5-dibromo-4-hydroxyphenyl)(2-ethylimidazo[1,2-a]-pyridin-3-yl)methanone] | > 100 µM | 71.7 ± 1.84% | > 100 µM |  | 
18 | CCc1nc2ccc(C)cn2c1C(=O)c1cc(Br)c(O)c(Br)c1 [Compound 30, (3,5-dibromo-4-hydroxyphenyl)(2-ethyl-6-methylimidazo[1,2-a]pyridine-3-yl)methanone] |  | 68 ± 1.49% |  |  | 
19 | CCc1nc2ccccn2c1C(=O)c1cc(I)c(O)c(C#N)c1 [Compound 75, 5-(2-ethylimidazo[1,2-a]pyridine-3-carbonyl)-2-hydroxy-3-iodobenzonitrile hydrogen chloride] | > 100 µM |  | > 100 µM |  | 62.58 ± 0.84%
